System: cholesterol biosynthesis (sterol synthesis, rat liver homogenate)
Assay: CSI screen: incorporation of 14C-acetate into nonsaponifiable lipid by rat liver homogenate (inhibition of cholesterol biosynthesis)
Format: biochemical
Details: rat liver homogenate from cholestyramine-fed rats; inhibition of sterol synthesis over a one-hour period
Procedure: The ability of compounds of the present invention to inhibit the biosynthesis of cholesterol was measured by a method (designated CSI screen) which utilizes the procedure described by R. E. Dugan et al, Archiv. Biochem. Biophys., (1972), 152, 21-27. In this method, the level of HMG-CoA enzyme activity in standard laboratory rats is increased by feeding the rats a chow diet containing 5cholestyramine for four days, after which the rats are sacrificed.
The rat livers are homogenized, and the incorporation of 14C-acetate into nonsaponifiable lipid by the rat liver homogenate is measured. The micromolar concentration of compound required for 50inhibition of sterol synthesis over a one-hour period is measured, and expressed as an IC50 value.

Compound	IC50 [µM]
CC(C)c1nc2ccc(Cl)cc2c(-c2ccc(F)cc2)c1/C=C/[C@@H]1C[C@@H](O)CC(=O)O1 (relative stereo) [[4α,6β(E)]6-[2-[6-Chloro-4-(4-fluorophenyl)-2-(1-methylethyl)-3-quinolinyl]ethenyl]tetrahydro-4-hydroxy-2H-pyran-2-one]	0.032
Cc1nc2ccc(Cl)cc2c(-c2ccc(F)cc2)c1/C=C/[C@@H]1C[C@@H](O)CC(=O)O1 (relative stereo) [CHCH, 4-Fluorophenyl, CH3, H, Cl, H, H, [4α,6β(E)]-6[-2-[6-Chloro-4-(4-fluorophenyl)-2-methyl-3-quinolinyl]ethenyl]-tetrahydro-4-hydroxy-2H-pyran-2-one]	0.35
